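How tested: cells in 96-well plates exposed to compound for 48 hours at five concentrations. TGI: concentration producing complete growth inhibition.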
Tests used:
Assay in all cases: NCI-60 cell line screen, 48 h
[1] = test system: CCRF-CEM leukemia
[2] = test system: TK-10 renal
[3] = test system: MALME-3M melanoma
[4] = test system: MDA-MB-231 breast
[5] = test system: HS 578T breast
[6] = test system: HCC-2998 colon
[7] = test system: SNB-19 CNS
[8] = test system: HL-60(TB) leukemia
[9] = test system: MDA-N
[10] = test system: SF-268 CNS
[11] = test system: M14 melanoma
[12] = test system: K-562 leukemia
[13] = test system: BT-549 breast
[14] = test system: 786-0 renal
[15] = test system: OVCAR-4 ovarian
[16] = test system: LOX IMVI melanoma
[17] = test system: A549 NSCLC
[18] = test system: IGROV1 ovarian
[19] = test system: SK-OV-3 ovarian

For `CC(=O)N1c2ccccc2C2=NN(C)C(=N)SC21` (stereo not drawn), the TGI [1] was over 100 µM, the TGI [2] was over 100 µM and the TGI [3] was over 100 µM. The TGI [4] was over 100 µM, the TGI [5] was over 100 µM and the TGI [6] was over 100 µM. It also gave a TGI [7] of over 100 µM, a TGI [8] of over 100 µM and a TGI [9] of over 100 µM. The TGI [10] was over 100 µM, the TGI [11] was over 100 µM and the TGI [12] was over 100 µM. The TGI [13] was over 100 µM, the TGI [14] was over 100 µM and the TGI [15] was over 100 µM. It also gave a TGI [16] of over 100 µM and a TGI [17] of over 100 µM.

`Cn1c2c(c3ccccc31)CCN=C2C1CCCOC1=O` (stereo not drawn) was tested, and the TGI [2] was over 100 µM, the TGI [3] was over 100 µM and the TGI [4] was over 100 µM. The TGI [5] was over 100 µM, the TGI [6] was over 100 µM and the TGI [7] was over 100 µM. It also gave a TGI [8] of over 100 µM, a TGI [9] of over 100 µM and a TGI [10] of over 100 µM. The TGI [11] was over 100 µM, the TGI [13] was over 100 µM and the TGI [14] was over 100 µM. It also gave a TGI [18] of over 100 µM, a TGI [15] of over 100 µM and a TGI [16] of over 100 µM. It also gave a TGI [17] of over 100 µM.

For `O=C1c2c(Br)sc(Br)c2[C@@H](Cl)[C@H]1Cl`, the TGI [1] was 35.9 µM, the TGI [2] was 87.3 µM and the TGI [3] was 82.7 µM. It also gave a TGI [4] of 36.8 µM, a TGI [5] of over 100 µM and a TGI [7] of 38.5 µM. The TGI [8] was 20.5 µM, the TGI [9] was 40.3 µM and the TGI [10] was 39.8 µM. It also gave a TGI [19] of 36.3 µM, a TGI [11] of 39.1 µM and a TGI [12] of over 100 µM. The TGI [13] was 39.3 µM, the TGI [14] was 52.5 µM and the TGI [18] was 42 µM. It also gave a TGI [15] of 37.4 µM, a TGI [16] of 51 µM and a TGI [17] of 79.7 µM.

`CC(C)=NNc1snnc1C(N)=O` was tested, and the TGI [1] was over 100 µM, the TGI [2] was over 100 µM and the TGI [3] was over 100 µM. It also gave a TGI [4] of over 100 µM, a TGI [5] of over 100 µM and a TGI [6] of over 100 µM. It also gave a TGI [7] of over 100 µM, a TGI [8] of over 100 µM and a TGI [9] of over 100 µM. For the same molecule, the TGI [10] was over 100 µM, the TGI [19] was over 100 µM and the TGI [11] was over 100 µM. For the same molecule, the TGI [12] was over 100 µM, the TGI [13] was over 100 µM and the TGI [14] was over 100 µM. It also gave a TGI [18] of over 100 µM, a TGI [16] of over 100 µM and a TGI [17] of over 100 µM.

With `CCOC(=O)c1nc2ccccc2nc1NCc1ccc(OC)c(OC)c1` the TGI [1] was over 100 µM, the TGI [2] was over 100 µM and the TGI [3] was over 100 µM. For the same molecule, the TGI [4] was over 100 µM, the TGI [5] was over 100 µM and the TGI [6] was over 100 µM. It also gave a TGI [8] of over 100 µM, a TGI [9] of over 100 µM and a TGI [10] of over 100 µM. It also gave a TGI [19] of over 100 µM, a TGI [12] of over 100 µM and a TGI [13] of over 100 µM. It also gave a TGI [14] of over 100 µM, a TGI [18] of over 100 µM and a TGI [15] of over 100 µM. It also gave a TGI [16] of over 100 µM and a TGI [17] of over 100 µM.

`C=C1CCCC(C)(C)[C@H]1C/C=C1\CCOC1=O` showed a TGI [1] of over 100 µM, a TGI [2] of 34.5 µM and a TGI [3] of 26.9 µM. It also gave a TGI [4] of 31.6 µM, a TGI [5] of 44.3 µM and a TGI [6] of over 100 µM. The TGI [7] was 30.7 µM, the TGI [8] was 43.8 µM and the TGI [9] was 33.3 µM. It also gave a TGI [10] of 23.9 µM, a TGI [19] of 57 µM and a TGI [11] of 34 µM. The TGI [12] was 26.5 µM, the TGI [13] was 26.9 µM and the TGI [14] was 28.7 µM. For the same molecule, the TGI [18] was 28.8 µM, the TGI [15] was 26.8 µM and the TGI [16] was 23.6 µM. It also gave a TGI [17] of 26.6 µM.

`CNCCCNC(=S)Cn1cc(C)c(=O)[nH]c1=O` gave a TGI [1] of over 50 µM, a TGI [2] of over 100 µM and a TGI [3] of over 100 µM. It also gave a TGI [4] of over 100 µM, a TGI [5] of over 75.5 µM and a TGI [6] of over 69 µM. It also gave a TGI [7] of over 100 µM, a TGI [8] of over 54 µM and a TGI [9] of over 100 µM. For the same molecule, the TGI [10] was over 100 µM, the TGI [19] was over 85.7 µM and the TGI [11] was over 69.6 µM. For the same molecule, the TGI [12] was over 100 µM, the TGI [13] was over 100 µM and the TGI [14] was over 100 µM. It also gave a TGI [18] of over 96.1 µM, a TGI [15] of over 100 µM and a TGI [16] of over 100 µM. It also gave a TGI [17] of over 51.3 µM.

In the case of `COC1=N[C@H](C(C)C)C(OC)=N[C@H]1Cc1ccc(C[C@@H]2N=C(OC)[C@@H](C(C)C)N=C2OC)s1`, the TGI [1] is reported as 50.3 µM, the TGI [2] is reported as over 100 µM and the TGI [3] is reported as over 100 µM. The TGI [4] was over 100 µM, the TGI [5] was over 100 µM and the TGI [6] was over 100 µM. It also gave a TGI [7] of over 100 µM, a TGI [9] of over 100 µM and a TGI [10] of over 100 µM. It also gave a TGI [19] of over 100 µM, a TGI [11] of over 100 µM and a TGI [12] of over 100 µM. For the same molecule, the TGI [13] was over 100 µM, the TGI [14] was over 100 µM and the TGI [18] was over 100 µM. For the same molecule, the TGI [15] was over 100 µM, the TGI [16] was over 100 µM and the TGI [17] was over 100 µM.

Molecule `CNCCN[C@@H]1c2cc3c(cc2[C@@H](c2cc(OC)c(O)c(OC)c2)[C@H]2C(=O)OC[C@@H]21)OCO3` has a TGI [1] of 0.117 µM, a TGI [2] of 8.21 µM and a TGI [3] of 1.83 µM. The TGI [4] was 2.71 µM, the TGI [5] was 1.34 µM and the TGI [6] was 3.79 µM. The TGI [7] was 11.9 µM, the TGI [8] was 0.0483 µM and the TGI [9] was 3.26 µM. The TGI [10] was over 25.6 µM, the TGI [19] was 1.52 µM and the TGI [11] was 4.68 µM. For the same molecule, the TGI [12] was over 100 µM, the TGI [13] was 0.814 µM and the TGI [14] was 0.487 µM. It also gave a TGI [18] of 2.63 µM, a TGI [15] of over 100 µM and a TGI [16] of 1.35 µM.

Work on `C=C(Cl)/C(=C\Cl)CCC(Cl)C(C)C` (stereo not drawn) yielded a TGI [1] of over 100 µM, a TGI [2] of over 100 µM and a TGI [3] of over 100 µM. The TGI [4] was over 100 µM, the TGI [5] was over 100 µM and the TGI [6] was over 100 µM. It also gave a TGI [7] of over 100 µM, a TGI [8] of over 100 µM and a TGI [9] of over 100 µM. The TGI [10] was over 100 µM, the TGI [19] was over 100 µM and the TGI [11] was over 100 µM. For the same molecule, the TGI [12] was over 100 µM, the TGI [13] was over 100 µM and the TGI [14] was over 100 µM. For the same molecule, the TGI [18] was over 100 µM, the TGI [15] was over 100 µM and the TGI [16] was over 100 µM. For the same molecule, the TGI [17] was over 100 µM.

With `O=C1CCC(=O)N1CNc1ccc2c(c1)S(=O)(=O)c1ccccc1O2` the TGI [1] was over 100 µM, the TGI [2] was over 100 µM and the TGI [3] was over 100 µM. For the same molecule, the TGI [4] was over 100 µM, the TGI [5] was over 100 µM and the TGI [7] was over 100 µM. The TGI [8] was over 100 µM, the TGI [9] was over 100 µM and the TGI [10] was over 100 µM. For the same molecule, the TGI [11] was over 100 µM, the TGI [12] was over 100 µM and the TGI [13] was over 100 µM. The TGI [14] was over 100 µM, the TGI [18] was over 100 µM and the TGI [15] was over 100 µM. The TGI [16] was over 100 µM and the TGI [17] was over 100 µM.

With `C[C@@H](CC(=O)O)OC1OC(COC(=O)C(C)(C)C)C(OC(=O)C(C)(C)C)C(OC(=O)C(C)(C)C)C1OC(=O)C(C)(C)C` (stereo partly drawn) the TGI [1] was 55.9 µM, the TGI [2] was over 100 µM and the TGI [4] was over 100 µM. The TGI [5] was over 100 µM, the TGI [6] was over 100 µM and the TGI [7] was 98.2 µM. For the same molecule, the TGI [8] was 46.3 µM, the TGI [9] was over 100 µM and the TGI [10] was over 100 µM. For the same molecule, the TGI [19] was over 100 µM, the TGI [11] was over 100 µM and the TGI [12] was over 100 µM. The TGI [13] was over 100 µM, the TGI [14] was over 100 µM and the TGI [18] was over 100 µM. It also gave a TGI [16] of over 100 µM and a TGI [17] of over 100 µM.
